Experimental data from paper doi:10.1101/2020.05.25.114512v1 (bioRxiv, 2020).
Converted amounts (≈) assume the structure as drawn.

How the values were obtained:
E. coli TolC mutants = assay: Bacterial cell entry test, LC-MS analysis; type: cell-based, Escherichia coli; conditions: concluded from fluorescence microscopy and LC-MS analysis
pancreatic elastase = conditions: previously listed in the literature; cited from earlier work
Cytotoxic activity [1] = type: cell-based; conditions: human, HCT-116 cells (colon carcinoma)
Cytotoxic activity [2] = type: cell-based; conditions: human, KB-3-1 cells (cervix carcinoma)
[3] = test system: pyocyanin produced by Pseudomonas aeruginosa strain PA14; assay: Pyocyanin assay; type: cell-based; conditions: administered to Pseudomonas aeruginosa
neurotensin = conditions: ref [25]; cited from earlier work

Compound	cell entry capabilities for E. coli (authors' conclusion, in words) (E. coli TolC mutants)	inhibition of pancreatic elastase (in words) (pancreatic elastase)	IC50 at 5 days (Cytotoxic activity [1])	IC50 at 5 days (Cytotoxic activity [2])	inhibition of pyocyanin production (in words) [3]	IC50, neurotensin inhibitor (neurotensin)
CC[C@H](C)[C@@H]1NC(=O)[C@@H](N)Cc2ccc(OC)c(c2)-c2cc3cc(c2O)Oc2ccc(cc2)C[C@@H](C(=O)O)NC(=O)[C@H](C3)NC1=O [cittilin A]	poor cell entry capabilities	moderate inhibitor	110 µg/mL (≈ 175 µM)	74.8 µg/mL (≈ 119 µM)	no inhibition of pyocyanin production	–
YIYY (bicyclic or more) [cittilin B]	–	–	–	–	–	30 µg/mL
